Assay: Ex vivo everted gut sac model
Type: in vitro ADME, rat
Experimental: Ex vivo everted gut sac model was performed according to a modified method (10, 11). For the preparation of everted gut sac, small intestines were rapidly isolated from rats right after their sacrificing followed by being washed several times with 0.9% saline. Duodenum was segmented of the intestine (˜4 cm) in oxygenated medium [Krebs-Henseleit solution (pH 7.4, 1.25 mM NaHCO3, pH 7.4, 5.9 mM NaCl, 23.5 μM KCl, 60 μM MgSO4, 62.5 μM CaCl2, 60 μM KH2PO4, 550 μM glucose)], gently everted, washed, slid onto a glass rod and fastened with braided silk. Duodenum was clamped at one end and filled with an aliquot of 1 mL fresh oxygenated medium, and subsequently sealed with a second clamp, resulting an everted gut sac with approximately 3 cm in length using braided silk sutures.
The everted gut sacs (n=3 per group) were dialyzed in oxygenated medium supplemented with CBS (200 μM), CBS (200 μM)+1NAC (200 μM), CBS (200 μM)+3NAC (600 μM), CBS (200 μM)+10NAC (2 mM), respectively, at 37° C. Aliquots of 50 μL samples were withdrawn from the gut sacs at different time intervals (15, 30, 45, 60 min) and equal volume of oxygenated medium was supplemented in gut sacs immediately. The length and width of each intestinal segment was measured after the final sample was taken. Bismuth content transported into the gut sacs was measured by ICP-MS as mentioned above.

Colloidal Bismuth Subcitrate [De-Nol]
cumulative bismuth permeated within 60 min (CBS 200 μM with 1 mol eq. NAC): 30.21 ng/cm2 | cumulative bismuth permeated within 60 min (CBS 200 μM with 3 mol eq. NAC): 64.98 ng/cm2 | cumulative bismuth permeated within 60 min (CBS 200 μM with 10 mol eq. NAC): 98.61 ng/cm2 | cumulative bismuth permeated within 60 min (CBS 200 μM, without NAC): 14.68 ng/cm2

From patent US20230218663A1, “COMPOSITIONS AND METHODS FOR TREATING A SARS-COV-2 INFECTION” (priority 2020, published 2023)
